Reference: patent publication US11259522B2, “Control of resistant pests” (priority 2017, dated 2022)
Values after ≈ are worked out from the molar mass of the structure shown. Values joined by “and” are separate entries in the source; they are usually repeats but may differ in a detail not shown here. Equal values may be shown once. Read-outs that look alike come from different tables or passages of the source.

Experiments:
[1] = test system: Rhipicephalus microplus larvae, susceptible non-resistant field strain (NRFS); assay: Larval packet test (LPT), cattle tick larvae, susceptible strain; assay type: in vivo; conditions: for LC50 (ppm) / LC99 (ppm): NRFS, Probit analysis; for mortality at 10000 ppm: 10,000 ppm; for mortality at 2.5 ppm: 2.500 ppm; for mortality at 5000 ppm: 5,000 ppm
Method: The larval packet test (LPT) is a modification of that first described by Stone and Haydock (1962, Bull. Entomol. Res., 563-578, http://dx.doi.org/10.1017/5000748530004832X) for evaluation of field resistance in cattle tick (Rhipicephalus microplus) larvae.
The first LPT assay was conducted to identify the potential range of flavesone acaricidal activity against larvae of a susceptible non-resistant field strain (NRFS) of R. microplus as a reference strain using a wide range of concentrations (1 in 10 in series).
The test compound, flavesone, 6-isobutyryl-2,2,4,4-tetramethylcyclohexane-1,3,5-trione, 96.7%, was used. As its volatility/evaporative properties were unknown, the LPT method was modified to incorporate the use of suitably-sized polyethylene plastic sheets to envelop the larval packets, minimizing exposure of the test active to the atmosphere.
In addition, the use of the solvent trichloroethylene (TCE) was removed to avoid the time required for evaporation in the preparation of test papers. The test solutions were prepared in olive oil only at the diluent and the papers immediately enveloped in the plastic sheets and sealed with bulldog clips to minimize evaporation.
A stock solution with a concentration of 100,000 ppm (10%) flavesone was prepared in olive oil as the diluent (1.035 mL flavesone (96.7%) to 8.965 mL olive oil) and then further diluted 1 in 10 in series to also give 10,000 ppm, 1,000 ppm, 100 ppm, 10 ppm and 1 ppm concentration. The negative control was olive oil only. No positive control was included in this experiment. Due to the viscosity of the olive oil, all solutions were prepared using reverse pipetting technique.
Filter papers (75 mm×85 mm Whatman® No. 541), with grid patterns, were impregnated on ½ of the paper with 225 μL of each solution using a micro-pipette and immediately folded in half, enveloped in polyethylene plastic and sealed with 3 bulldog clips. The impregnated papers were kept at room temperature on aluminium trays for a minimum of 60 minutes to allow for dispersal across the grid pattern of the paper prior to aliquoting of larvae. The packets were prepared in duplicate for each concentration, including the negative control.
An 8 dram vial containing approximately 20,000 hatched 7-21 day old NRFS larvae (about 1 g eggs) was opened and set up on a moated tray with a small amount of detergenated water, about 15 to 30 minute before use. Only larvae that migrated to the top of the vial were used in the assay.
Aliquots of approximately 100 larvae were placed into each packet using plastic disposable forceps and the packets resealed and incubated and 27° C. and 85% relative humidity (RH).
After 24 hours, the larval packets were opened and the numbers of dead and live larvae were counted under a magnification lamp. Percentage mortality was calculated and, where applicable, corrected using Abbott's Formula (Abbott, 1925, J. Economic Entomology, 18:256-257): […]
LC50 and LC99 values were determined by Probit mortality vs log concentration analysis. Probit values were derived from “Transformation of Percentages to Probit's Tables” published by Fisher R. A. and Yates F. (1938).
The LPT Assay of Example 1 was repeated using a narrow range of concentrations, 1 in 2 series, of flavesone to determine LC50 and LC99 values against the susceptible NRFS and the multi-resistant Tiaro reference strain.
The stock solution of flavesone (100,000 ppm) was diluted 1 in 10 with olive oil (1 mL to 9 mL diluent) to give 10,000 ppm, which was then further diluted 1 in 2 in series (5 mL to 5 mL diluent) to give 5,000 ppm, 2,500 ppm, 1,250 ppm, 625 ppm, 312.5 ppm and 156.25 ppm concentrations. […]

[2] = test system: Rhyzopertha dominica susceptible strain QRD14; assay: Grain protectant bioassay on treated wheat, susceptible lesser grain borer; assay type: in vivo; conditions: for 14 day Adult Mortality No. dead/total / F1 Progeny count No. dead/total: Example 8, QQRD14, replicates A, B, C; for Progeny reduction (%): vs untreated control
Text: The experiment of Example 5 was repeated using a laboratory reared susceptible strain QQRD14 of R. dominica and different concentrations of flavesone to determine efficacy.

[3] = test system: Aedes aegypti PRS Puerto Rican strain (synthetic pyrethroid resistant) L3 larvae; assay: Mosquito larval dose response assay, PRS strain; conditions: read-out: Lethal Concentration (LC50) PRS Strain
[4] = Rhipicephalus microplus, 24 h, Example 2
[5] = Rhipicephalus microplus, 24 h, Example 3
[6] = Rhipicephalus microplus, 48 h, Example 4

In the case of `CC(C)C(=O)C1C(=O)C(C)(C)C(=O)C(C)(C)C1=O` [Flavesone, 1-isobutyroyl-3,3,5,5-tetramethylcyclohexane-2,4,6-trione], the “LC50 (ppm)” value ([1]; Example 1, 24 hours) is reported as 171 ppm, the “LC99 (ppm)” value ([1]; Example 1, 24 hours) is reported as 3346 ppm and the “LC50 (ppm)” value ([1]; Example 2, 24 hours) is reported as 690 ppm. The “LC99 (ppm)” value ([1]; Example 2, 24 hours) was 1109 ppm, the “LC50 (ppm)” value ([1]; Example 3, 24 hours) was 610 ppm and the “LC99 (ppm)” value ([1]; Example 3, 24 hours) was 1050 ppm. For the same compound, the “LC50 (ppm)” value ([1]; Example 4, 48 hours) was 526 ppm, the “LC99 (ppm)” value ([1]; Example 4, 48 hours) was 923 ppm and the mortality at 1 ppm ([1]; Rhipicephalus microplus, 24 h, Example 1, 1 ppm) was 0%. It also gave a mortality at 10 ppm ([1]; Rhipicephalus microplus, 24 h, Example 1, 10 ppm) of 0.62%, a mortality at 100 ppm ([1]; Rhipicephalus microplus, 24 h, Example 1, 100 ppm) of 1.82% and a mortality at 1000 ppm ([1]; Rhipicephalus microplus, 24 h, Example 1, 1,000 ppm) of 97%. It also gave a mortality at 10000 ppm ([1]; Rhipicephalus microplus, 24 h, Example 1) of 100%, a mortality at 100000 ppm ([1]; Rhipicephalus microplus, 24 h, Example 1, 100,000 ppm) of 100% and a mortality at 2.5 ppm [1, 4] of 100%. It also gave a mortality at 156.25 ppm ([1]; Rhipicephalus microplus, 24 h, Example 2, 156.25 ppm) of 0%, a mortality at 312.5 ppm [1, 4] of 0% and a mortality at 625 ppm [1, 4] of 11.8%. It also gave a mortality at 1250 ppm ([1]; Rhipicephalus microplus, 24 h, Example 2, 1,250 ppm) of 100%, a mortality at 5000 ppm [1, 4] of 100% and a mortality at 10000 ppm [1, 4] of 100%. The mortality at 2.5 ppm [1, 5] was 100%, the mortality at 312.5 ppm [1, 5] was 1.28% and the mortality at 625 ppm [1, 5] was 11.8%. It also gave a mortality at 1250 ppm ([1]; Rhipicephalus microplus, 24 h, Example 3, 1,250 ppm) of 100%, a mortality at 5000 ppm [1, 5] of 100% and a mortality at 312.5 ppm [1, 6] of 2.17%. For the same compound, the mortality at 625 ppm [1, 6] was 66.8%, the mortality at 1250 ppm ([1]; Rhipicephalus microplus, 48 h, Example 4, 1250 ppm) was 100% and the “14 day Adult Mortality No. dead/total” value ([2]; 5 ppm on wheat) was 0/50. The “F1 Progeny count No. dead/total” value ([2]; 5 ppm on wheat) was 4/930 and 4/999 and 1/866, the “14 day Adult Mortality No. dead/total” value ([2]; 10 ppm on wheat) was 6/50 (2×) and 8/50 and the “F1 Progeny count No. dead/total” value ([2]; 10 ppm on wheat) was 3/446 and 0/444 and 3/487. For the same compound, the “14 day Adult Mortality No. dead/total” value ([2]; 25 ppm on wheat) was 50/50, the “F1 Progeny count No. dead/total” value ([2]; 25 ppm on wheat) was 0/0 and the “14 day Adult Mortality No. dead/total” value ([2]; 50 ppm on wheat) was 50/50. The “F1 Progeny count No. dead/total” value ([2]; 50 ppm on wheat) was 0/0, the “14 day Adult Mortality No. dead/total” value ([2]; 100 ppm on wheat) was 50/50 and the “F1 Progeny count No. dead/total” value ([2]; 100 ppm on wheat) was 0/0. The Live adult progeny ([2]; QRD14, 25 mg/kg, mean ± SE) was 0.0 ± 0.0, the “Progeny reduction (%)” value ([2]; QRD14, 25 mg/kg) was 100% and the Live adult progeny ([2]; QRD14, 60 mg/kg, mean ± SE) was 0.0 ± 0.0. For the same compound, the “Progeny reduction (%)” value ([2]; QRD14, 60 mg/kg) was 100%, the mortality at 25 mg/kg ([2]; Rhyzopertha dominica, 336 h, QRD14, 25 mg/kg, 2 weeks, mean ± SE, read-out: Adult mortality (%)) was 98 ± 1.2% and the mortality at 60 mg/kg ([2]; Rhyzopertha dominica, 336 h, QRD14, 60 mg/kg, 2 weeks, mean ± SE, read-out: Adult mortality (%)) was 100%. The LC50 ([3]; 24 h) was 40.9 µg/mL (≈ 162 µM), the LC50 ([3]; 48 h) was 40.5 µg/mL (≈ 161 µM) and the LC50 ([3]; 72 h) was 39.7 µg/mL (≈ 157 µM).
